Patent publication US20110178015A1, “METHODS OF TREATMENT USING BIASED LIGANDS FOR RECEPTORS SUCH AS THE PTH RECEPTOR” (priority 2007, published 2011)
Entries after “also recorded” stand apart in the source; their conditions may differ.

Assays:
[1] = test system: ERK1/2; test: ERK1/2 MAP kinase activation (phosphorylation) in primary osteoblasts; type: cell-based, mice; settings: 5 min, 100 nM PTH(1-34) or 1 μM PTH-βarr; for ERK1/2 activation: β-arrestin 2−/− POB; for ERK1/2 phosphorylation: WT POB
Procedure: FIG. 2 PTH-βarr stimulates β-arrestin mediated ERK1/2 activation. PTH-βarr stimulated ERK1/2 activation, was assessed in POBs isolated from β-arrestin 2−/− and WT C57BL/6 mice. POBs were treated with 100 nM PTH(1-34) (PTH) or 1 μM PTH-βarr for 5 min. […] The effect of PTH-barr stimulation on ERK1/2 activation in the WT obs was absent in the β-arrestin 2−/− obs. Values presented are the fold ERK1/2 phosphorylation over non-stimulated controls. Data represent the mean±SEM from four independent experiments. (**, P<0.01 compared with the non-stimulated WT POBs; ††, P<0.01 compared with the non-stimulated β-arrestin 2−/− POBs).
PTH(1-34) and PTH-βarr stimulated ERK1/2 MAP kinase activation was assessed in WT and β-arrestin 2−/− POB after treatment for 5 min with 100 nM PTH(1-34) or 1 μM PTH-βarr (FIG. 1b).

[2] = test system: WT and β-arrestin 2−/− mice; test: Bone mineral density after intermittent daily IP treatment; type: in vivo; settings: once daily IP 40 mg/kg/day, 4 and 8 weeks
Procedure: FIG. 3. PTH-βarr increases lumbar spine bone mineral density. The effect of daily administration of vehicle, PTH (1-34)(PTH) or PTH-βarr on bone mineral density after 4 and 8 weeks was measured in the (a) lumbar spine of WT mice (b) lumbar spine of β-arrestin 2−/− (c) femur shaft of WT mice and (d) femoral shaft of β-arrestin 2−/− mice. […] Data represents the mean±SEM of at least 7 independent mouse measurements. (*, P<0.05; **, P<0.01 compared with vehicle treated controls)
β-arrestin 2−/− mice are fertile and present no gross phenotypic abnormalities. Further, no gross alterations in skeletal morphology or size were detected by x-ray analysis of β-arrestin 2−/− mice compared to 6 WT mice (data not shown). To examine the contribution of β-arrestin mediated signaling to regulation of the anabolic effects of PTH on bone, 9 week old WT and β-arrestin 2−/− mice were treated with intermittent (i.e. once daily) IP injection of PTH (1-34) (40 mg/kg/day), the β-arrestin biased agonist PTH-βarr (40 mg/kg/day). Its usually mg/kg/day) or vehicle. Bone mineral density (BMD) measurements were obtained at baseline and serially over 4 to 8 wks (FIG. 2). […] There were no significant differences in whole body BMD or femoral BMD between the WT or β-arrestin 2−/− mice. […] Consistent with earlier reports, these increases in BMD were absent in the PTH(1-34) treated β-arrestin 2−/− mice (FIGS. 2B and D). […] The decrease in BMD in β-arrestin 2−/− mice treated with PTH-βarr, are likely due to the inhibition of G protein mediated signaling as well as the absence of β-arrestin 2 mediated signaling.

[3] = test system: WT and β-arrestin 2−/− mice; test: Quantitative microCT of the lumbar spine (trabecular bone); type: in vivo; settings: for percent increase in Tb bone density: vs vehicle, 8 weeks
From the text: FIG. 4. β-arrestin 2 dependent signaling contributes to increases in trabecular bone but not cortical bone. Quantitative microCT of the lumbar spine was used to determine the effect vehicle, PTH (1-34) (PTH), or PTH-barr on (a) trabecular bone (Tb) density (BV/TV), (b) Tb thickness and (c) Tb number in WT and β-arrestin 2−/− mice after 8 wks of treatment. PTH and PTH-βarr increased tb density, tb thickness, and tb number in WT treated animals. The effects of PTH-βarr were absent in the β-arrestin −/− animals consistant with a b-arrestin mediated mechanism of anabolic bone formation. Data represent the mean±SEM of at least 7 independent mouse measurements. (***, P<0.001; **, P<0.01; *, P<0.05 compared with vehicle treated WT mice; if, P<0.01; t, P<0.05 compared with vehicle treated β-arrestin 2−/− mice).
Quantitative microCT (qCT) measurements of the lumbar spine were acquired from WT and β-arrestin 2−/− mice after 8 weeks of treatment with vehicle, PTH(1-34), or PTH-βarr. There was no significant difference in the overall trabecular bone density (BV/TV) between vehicle treated WT and β-arrestin 2−/− mice (FIG. 3A). […] These differences in trabecular bone architecture in sham treated animals reflect two potential contributing processes 1) the loss of β-arrestin mediated signaling and 2) the exaggeration of Gs signaling due to the loss of β-arrestin desensitization.

[4] = test system: WT and β-arrestin 2−/− mice; test: qCT of the midfemoral shaft (cortical bone); type: in vivo; settings: for femoral periosteal circumference / midshaft cortical thickness: WT mice; for femoral periosteal circumference / midshaft cortical thickness / cortical thickness / periosteal circumference: 8 wks; for endosteal bone surfaces: WT or β-arrestin−/− mice, data not shown; for cortical thickness / periosteal circumference: β-arrestin 2−/− mice
From the text: Finally, the effects of PTH(1-34) and PTH-βarr on cortical bone were examined by qCT of the midfemoral shaft (FIGS. 3D and E). […] However the β-arrestin 2−/− mice had greater midshaft cortical thickness than vehicle treated WT mice. […] The biased agonist, PTH-βarr had no effect on these cortical indices in WT mice.

[5] = test system: osteocalcin, RANKL and OPG gene expression; test: Calvarial gene expression of bone regulatory proteins by quantitative RT-PCR; type: in vivo, mice
Procedure: FIG. 6 Distinct β-arrestin- and G protein-dependent Pathways Contribute to PTH Receptor-stimulated Gene Expression of Bone Regulatory Proteins. To determine the contributions of β-arrestin mediated signaling, to PTH receptor stimulated transcription of bone regulatory proteins, RNA was isolated from the calvaria of WT and β-arrestin 2−/− mice treated with vehicle, PTH(1-34) (PTH), or PTH-βarr. Gene expression was analyzed by quantitative RT-PCR. (a) Consistent with bone formation PTH and PTH-βarr increased osteocalcin expression in WT calvaria. […] (b) and (c). […] Data represent the mean±SEM from six independent experiments. (***, P<0.001; **, P<0.01; *, P<0.05; compared with vehicle treated WT mice; †††, P<0.001; †, P<0.05 compared with vehicle treated β-arrestin 2−/− mice).
To determine the contribution of β-arrestin mediated signaling to PTH1R-stimulated transcription of bone regulatory proteins, calvarial RNA was isolated from WT and β-arrestin 2−/− mice treated with PTH(1-34), PTH-βarr or vehicle. Gene expression for osteocalcin, as well as receptor activator of nuclear factor-KB ligand (RANKL) and osteoprotegrin (OPG), which activate and inhibit osteoclastic bone resorption respectively, was analyzed by quantitative RTPCR (FIG. 6 A-C).

[6] = WT mice, 8 weeks of daily treatment
[7] = β-arrestin 2−/− mice, 8 weeks of daily treatment
[8] = WT mice, 8 weeks of daily treatment, listed as PTH

Substance | ERK1/2 activation [1] | femoral BMD vs vehicle ([2]; WT mice) | femoral BMD vs vehicle ([2]; β-arrestin 2−/− mice) | lumbar spine trabecular bone density (BV/TV) vs vehicle [3, 6] | trabecular number vs vehicle [3, 6] | trabecular thickness vs vehicle [3, 6] | femoral periosteal circumference [4] | midshaft cortical thickness [4] | endosteal bone surfaces [4] | cortical thickness [4] | periosteal circumference [4] | OPG mRNA expression vs vehicle ([5]; WT mice, calvaria) | RANKL mRNA expression vs vehicle ([5]; WT mice, calvaria) | osteocalcin mRNA expression vs vehicle ([5]; WT mice, calvaria) | OPG mRNA expression vs vehicle ([5]; β-arrestin 2−/− mice, calvaria) | RANKL mRNA expression vs vehicle ([5]; β-arrestin 2−/− mice, calvaria) | further results
(D-Trp12, Tyr34)-PTH(7-34) [PTH-βarr] | failed to activate ERK1/2 | did not significantly affect | decreases | increased; also recorded: significant increase | increased; also recorded: significant increases | increased; also recorded: significant increases | no effect | no effect | no significant effects | significantly decreased | significantly decreased | did not affect | did not affect | increases | Neither PTH nor PTH-βarr treatment had a significant effect | Neither PTH nor PTH-βarr treatment had a significant effect | ERK1/2 activation ([1]; listed as PTH-barr): absent; lumbar spine BMD vs vehicle ([2]; WT mice, 40 mg/kg/day): significant increases; trabecular number vs vehicle [3, 7]: absent; OPG mRNA expression vs vehicle ([5]; WT mice; calvaria; Tyr34)-PTH(7-34)): significantly increases; osteocalcin mRNA expression vs vehicle ([5]; β-arrestin 2−/− mice, calvaria): decrease
PTH(1-34) [reference compound] | responded to PTH(1-34) much as WT POB | marked increases | absent | significantly increased | significant increases | significant increases | increased | increased | no significant effects | no significant effect | no significant effect | increases | increases | increases | Neither PTH nor PTH-βarr treatment had a significant effect | Neither PTH nor PTH-βarr treatment had a significant effect | ERK1/2 phosphorylation [1]: approximately 3 fold over basal; ERK1/2 phosphorylation ([1]; listed as PTH): robustly activated; lumbar spine BMD vs vehicle ([2]; WT mice): marked increases; lumbar spine BMD vs vehicle ([2]; β-arrestin 2−/− mice): absent; lumbar spine trabecular bone density (BV/TV) vs vehicle [3, 8]: increased; trabecular number vs vehicle [3, 8]: increased; trabecular thickness vs vehicle [3, 8]: increased; percent increase in Tb bone density ([3]; WT mice): 38%; trabecular bone density (BV/TV) vs vehicle [3, 7]: net increase; trabecular thickness vs vehicle [3, 7]: significant increases; percent increase in Tb bone density ([3]; β-arrestin 2−/− mice): 17%; osteocalcin mRNA expression vs vehicle ([5]; WT mice, calvaria, listed as PTH): increased; osteocalcin mRNA expression vs vehicle ([5]; β-arrestin 2−/− mice, calvaria, listed as PTH): significant increase; also recorded: significantly increased
